We go through two compounds from publication PMC12865225 (Clinical and Translational Science, 2026).

The test system of one data set is T1, OAT2.
T1 construct: expressed in transfected cells; host or cells: HEK293 (recombinant baculovirus-mediated transduction)
Description: OAT2 inhibition, methotrexate uptake into HEK293 cells. Particulars: 200 μM inhibitor, 34 nM methotrexate. It counts as cell-based, human. As to the method: The human transporters OATP1B1, OATP1B3, OATP2B1, and OAT1‐OAT4 and a negative control protein (enhanced yellow fluorescent protein, eYFP) were transiently expressed in human embryonic kidney 293 (HEK293) cells by recombinant baculovirus‐mediated transduction. Baculoviruses carrying human genes for the transporters were prepared as reported previously. HEK293 cells were cultured in DMEM containing 10% fetal bovine serum at 37°C and 5% CO2 and passaged two to three times per week. For the transport studies, 0.05 × 10^6 cells for 48‐well plates (OATPs) or 0.06 × 10^6 cells for 24‐well plates (OATs) were seeded onto cell‐culture treated well plates coated with poly‐D‐lysine. […]
In the OATP inhibition assays, inhibitors in warm TP‐buffer were directly applied to cells after media removal, followed by a 30‐min preincubation step in the presence of inhibitors. […] OAT1 and OAT3 cells were lysed with 200 μL of 1 M sodium hydroxide for 10 min, and 150 μL of these samples were transferred to a black well plate for fluorescein quantification. […]
For the inhibition data analysis, the average of measured concentrations in the control cells was subtracted from the average of measured concentrations in transporter‐expressing cells for each inhibitor concentration and then normalized to the vehicle sample that represents 100% transport activity. […]

The subject of the next data set is T2, MRP2.
T2 construct: made in house; host or cells: membrane vesicles from HEK293 cells expressing the transporter
Description: Efflux transport assay in MRP2 HEK293 membrane vesicles. In kind it is biochemical, human. The settings on record: 5 and 50 µM, 10 min.

On to `Cc1onc(-c2c(Cl)cccc2Cl)c1C(=O)N[C@@H]1C(=O)N2[C@@H]1SC(C)(C)[C@@H]2C(=O)O` [Dicloxacillin], for which the “inhibition of OAT2-mediated transport of methotrexate” value in the data set with OAT2 is listed as “neither compound substantially inhibited”. For the same compound, the “transport by MRP2” value with MRP2 is on record as “did not transport”.

For the compound `Cc1onc(-c2c(F)cccc2Cl)c1C(=O)N[C@@H]1C(=O)N2[C@@H]1SC(C)(C)[C@@H]2C(=O)O` [Flucloxacillin], the “inhibition of OAT2-mediated transport of methotrexate” value in the data set on OAT2 is recorded as “neither compound substantially inhibited”. Also, the “transport by MRP2” value in the data set on MRP2 is given as “did not transport”.
